Legend:
[1] = test system: MDA-MB-231 xenografts; assay: Growth of MDA-MB-231 xenografts transplanted in situ into mammary gland fat pads; format: in vivo, mice; conditions: Rebastinib 80 mg/kg by gavage, 13 days, vs solvent control; FIG. 5A-5D
From the text: Lentivirus-infected breast tumor cells were resuspended with 50% of FBS (diluted with PBS), added with Matrigel at a volume ratio of 1:1, then added with 0.04% of trypan blue, mixed well, and placed on ice until inoculation into mice. After the mouse was anesthetized, it was placed on an experimental table with its abdomen facing upwards, and a “Y”-shaped opening was cut in its abdominal epidermis along a midline and the direction of the lower limbs on both sides with scissors (without cutting the peritoneum). The opening was peeled off to both sides with cotton swabs and tweezers to expose the fourth pair of mammary gland fat pads, and the epidermis was fixed with needles. 10-20 μL of a cell suspension was drawn up with a syringe and injected into the mammary gland fat pads. Finally, the skin on both sides was closed and sutured with surgical staples. The surgical staples could be removed after the wound healed. Since the surgery, the occurrence of tumors in the mouse was observed and recorded every day. After about one week, the length and width of the tumor were measured with a vernier caliper and recorded, and the change in the weight of the mouse was monitored. The tumor volume was calculated by the following formula: Volume (mm^3)=length×width×width×0.52.
(§1) The tumor cell line was transplanted in situ as that in Example 1. When the tumor size reached […], the mice were divided into a control group (solvent) and a group administrated with Rebastinib (80 mg/kg), with 3 mice in each group. The mice were administrated by gavage continuously (administrated with MDA-MB-231 xenografts for 13 days and administrated with PDX for 11 days), during which the mice were weighed every day, and the tumor size was measured every three days. After completion of the administration, the mice were sacrificed and the tumors were weighed.

[2] = test system: TNBC-type PDX tumors; assay: Growth of TNBC-type PDX tumors; format: in vivo, NSG mice; conditions: Rebastinib 80 mg/kg by gavage, 11 days, vs solvent control; FIG. 5H-5K
Protocol: Primary tumor cells from the patient infected with the lentivirus were in-situ injected into the fourth pair of mammary gland fat pads of the NSG mice according to the method described in 3, and the occurrence of tumors was observed and recorded.
as §1

[3] = test system: TNBC-type PDOs; assay: Growth of TNBC PDO (patient-derived organoids in Matrigel); format: cell-based, human; conditions: 1 μM and 5 μM
Protocol: The primary tumor cells from the patient infected with the lentivirus were resuspended with pre-cooled Matrigel to a concentration of 2× 10^4 cells/50 μL Matrigel. The Matrigel was added dropwise into a 24-well culture plate and allowed to stand at 37° C. for 15-20 min. After confluence, the cells were added with a breast cancer tumor organoid culture medium for culture, the culture medium was replaced by a fresh culture medium every three days, and the number and size of organoid growth were counted.
Similar to the PDO model establishment operation in Example 1, the primary tumor cells derived from TNBC patients were resuspended with pre-cooled Matrigel to a concentration of 2×10^4 cells/50 μL Matrigel. The Matrigel was added dropwise into a 24-well culture plate and allowed to stand at 37° C. for 15-20 min. After confluence, the cells were added with a breast cancer tumor organoid culture medium for culture, and the culture medium was replaced by a fresh culture medium every three days. The PDOs were divided into 6 groups, including an untreated group, a solvent control group, groups administrated with low and high doses of Abemaciclib (with doses of 1 μM and 5 μM, respectively), and groups administrated with low and high doses of Rebastinib (with doses of 1 μM and 5 μM, respectively). After three days of culture, the PDOs were started to be treated by addition of a drug according to groups. The size and number of organoids were counted after one week.

## CNC(=O)c1cc(Oc2ccc(NC(=O)Nc3cc(C(C)(C)C)nn3-c3ccc4ncccc4c3)c(F)c2)ccn1 [Rebastinib]
[1]
  sizes of MDA-MB-231 tumors: significantly inhibits
  volumes of MDA-MB-231 tumors: significantly inhibits
  weights of MDA-MB-231 tumors: significantly inhibits
[2]
  sizes of TNBC-type PDX tumors: significantly inhibits
  volumes of TNBC-type PDX tumors: significantly inhibits
  weights of TNBC-type PDX tumors: significantly inhibits
[3]; counted after one week, FIG. 5E
  sizes of TNBC-type PDOs: significantly inhibits
[3]; counted after one week, FIG. 5F
  number of TNBC-type PDOs: significantly reduces
[3]; FIG. 5G
  apoptosis of TNBC-type PDOs: promotes
  proliferation of TNBC-type PDOs: significantly inhibits

— patent US20250179499A1, “USE OF CDK16 AS TARGET IN PREPARATION OF MEDICINE FOR TREATING TRIPLE-NEGATIVE BREAST CANCER” (SHENZHEN TYERCAN BIO-PHARM CO., LTD., priority 2022, published 2025)
